Target: T1, ΔF508-CFTR (Homo sapiens, UniProt P13569, DEL508-508)
T1 construct: expressed in transfected cells
Experiment: Membrane potential optical assay (FRET voltage-sensor dyes, VIPR), identification of potentiator compounds
Assay type: cell-based
Details: Table 3; assay not given
How it was run: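 NIH3T3 mouse fibroblasts stably expressing ΔF508-CFTR, cultured 24 h at 27 °C, were loaded with FRET voltage dyes CC2-DMPE and DiSBAC2(3). Double-addition format: first addition of Cl⁻-free (gluconate) medium with or without compound; membrane-potential change read as fluorescence on VIPR II.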

T1 sequence (P13569 with tags, fused parts or gaps DEL508-508): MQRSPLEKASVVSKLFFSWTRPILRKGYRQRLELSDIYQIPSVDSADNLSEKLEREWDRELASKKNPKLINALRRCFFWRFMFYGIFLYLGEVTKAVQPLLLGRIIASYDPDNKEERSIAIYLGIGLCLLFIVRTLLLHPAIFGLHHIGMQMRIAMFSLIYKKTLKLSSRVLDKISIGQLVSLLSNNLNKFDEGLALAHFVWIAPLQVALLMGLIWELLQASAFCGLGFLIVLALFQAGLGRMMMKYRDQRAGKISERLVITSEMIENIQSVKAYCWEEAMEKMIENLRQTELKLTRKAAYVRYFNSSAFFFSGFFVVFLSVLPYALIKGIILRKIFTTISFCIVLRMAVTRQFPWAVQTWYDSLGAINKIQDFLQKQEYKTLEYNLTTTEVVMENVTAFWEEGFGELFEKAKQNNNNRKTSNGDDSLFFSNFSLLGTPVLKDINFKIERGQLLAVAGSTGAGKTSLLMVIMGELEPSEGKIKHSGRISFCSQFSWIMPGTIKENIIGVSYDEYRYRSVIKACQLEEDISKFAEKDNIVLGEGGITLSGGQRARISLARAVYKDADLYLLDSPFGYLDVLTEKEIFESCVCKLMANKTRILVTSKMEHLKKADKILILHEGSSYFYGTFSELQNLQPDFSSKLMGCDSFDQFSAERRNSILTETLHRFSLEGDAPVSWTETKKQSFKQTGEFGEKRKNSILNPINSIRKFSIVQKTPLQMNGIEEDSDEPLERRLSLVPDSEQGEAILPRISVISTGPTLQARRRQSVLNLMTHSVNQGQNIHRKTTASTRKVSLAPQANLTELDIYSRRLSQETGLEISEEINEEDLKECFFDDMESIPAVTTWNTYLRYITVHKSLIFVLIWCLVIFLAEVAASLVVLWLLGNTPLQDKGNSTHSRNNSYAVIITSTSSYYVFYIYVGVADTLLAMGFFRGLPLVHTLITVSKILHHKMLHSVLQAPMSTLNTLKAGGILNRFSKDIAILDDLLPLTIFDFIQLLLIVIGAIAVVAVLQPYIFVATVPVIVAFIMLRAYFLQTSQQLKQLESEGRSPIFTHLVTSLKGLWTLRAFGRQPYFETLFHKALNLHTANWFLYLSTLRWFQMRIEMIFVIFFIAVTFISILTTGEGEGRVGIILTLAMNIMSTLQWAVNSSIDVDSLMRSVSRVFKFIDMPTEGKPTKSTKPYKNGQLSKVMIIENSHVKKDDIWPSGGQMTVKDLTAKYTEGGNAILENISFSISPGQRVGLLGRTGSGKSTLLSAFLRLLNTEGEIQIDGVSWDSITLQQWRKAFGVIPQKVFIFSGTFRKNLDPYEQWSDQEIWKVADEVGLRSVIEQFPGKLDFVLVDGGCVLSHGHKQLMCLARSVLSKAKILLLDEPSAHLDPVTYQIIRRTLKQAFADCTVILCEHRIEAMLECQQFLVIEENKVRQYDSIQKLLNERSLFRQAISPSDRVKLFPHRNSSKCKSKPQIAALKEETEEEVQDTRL

Row | EC50 [µM] | SMILES
1 | < 10 | CSc1ccccc1-c1ccccc1NC(=O)c1c[nH]c2ccccc2c1=O [Compound 279, N-[2-(2-methylsulfanylphenyl)phenyl]-4-oxo-1H-quinoline-3-carboxamide]
2 | < 10 | O=C(Nc1ccc(N2CCCC2)cc1)c1c[nH]c2ccccc2c1=O [Compound 674, 4-oxo-N-(4-pyrrolidin-1-ylphenyl)-1H-quinoline-3-carboxamide]
3 | < 10 | O=C(Nc1cc(O)c2ccccc2c1)c1c[nH]c2ccccc2c1=O [Compound 551, N-(4-hydroxy-2-naphthyl)-4-oxo-1H-quinoline-3-carboxamide]
4 | < 10 | O=C(Nc1cccnc1Oc1ccc(F)cc1F)c1c[nH]c2ccccc2c1=O [Compound 385, N-[2-(2,4-difluorophenoxy)-3-pyridyl]-4-oxo-1H-quinoline-3-carboxamide]
5 | < 10 | CCc1cccc(C(C)C)c1NC(=O)c1c[nH]c2ccccc2c1=O [Compound 314, N-(2-ethyl-6-isopropyl-phenyl)-4-oxo-1H-quinoline-3-carboxamide]
6 | < 10 | COc1ccc(OC)c(-c2ccccc2NC(=O)c2c[nH]c3ccccc3c2=O)c1 [Compound 361, N-[2-(2,5-dimethoxyphenyl)phenyl]-4-oxo-1H-quinoline-3-carboxamide]

Same assay, conditions: Table 3; assay not given; read-out: % Activity (% Efficacy, relative efficacy)

Row | Emax [%] | SMILES
7 | 25 to 100 | Cc1ccc(C)n1-c1ccccc1NC(=O)c1c[nH]c2ccccc2c1=O [Compound 297, N-[2-(2,5-dimethyl-1H-pyrrol-1-yl)phenyl]-4-oxo-1H-quinoline-3-carboxamide]
8 | 25 to 100 | CSc1ccccc1-c1ccccc1NC(=O)c1c[nH]c2ccccc2c1=O [Compound 279, N-[2-(2-methylsulfanylphenyl)phenyl]-4-oxo-1H-quinoline-3-carboxamide]
9 | 25 to 100 | COC(=O)c1c(NC(=O)c2c[nH]c3ccccc3c2=O)csc1C(C)(C)C [Compound 690, methyl 4-[(4-oxo-1H-quinolin-3-yl)carbonylamino]-2-tert-butyl-thiophene-3-carboxylate]
10 | 25 to 100 | COc1ccc2[nH]cc(C(=O)Nc3ccc(N4[C@H](C)CC[C@H]4C)cc3C(F)(F)F)c(=O)c2c1 [Compound 685, N-(4-((2R,5R)-2,5-dimethylpyrrolidin-1-yl)-2-(trifluoromethyl)phenyl)-6-methoxy-4-oxo-1,4-dihydroquinoline-3-carboxamide]
11 | < 25 | CC(C)(C)c1cc2cc[nH]c2cc1NC(=O)c1c[nH]c2c(C(F)(F)F)cccc2c1=O [Compound 559, 4-oxo-N-(5-tert-butyl-1H-indol-6-yl)-8-(trifluoromethyl)-1H-quinoline-3-carboxamide]
12 | 25 to 100 | CC1CCN(c2ccc(NC(=O)c3c[nH]c4ccccc4c3=O)c(C(F)(F)F)c2)C1 (stereo not shown) [Compound 555, N-[4-(3-methylpyrrolidin-1-yl)-2-(trifluoromethyl)phenyl]-4-oxo-1H-quinoline-3-carboxamide]
13 | < 25 | Cn1cc(C(=O)Nc2ccccc2)c(=O)c2ccccc21 [Compound 468, 1-methyl-4-oxo-N-phenyl-1H-quinoline-3-carboxamide]
14 | 25 to 100 | O=C(Nc1ccccc1N1CCCCC1)c1c[nH]c2ccccc2c1=O [Compound 26, 4-oxo-N-[2-(1-piperidyl)phenyl]-1H-quinoline-3-carboxamide]
15 | 25 to 100 | CC1(C)CCN(c2ccc(NC(=O)c3c[nH]c4ccccc4c3=O)c(C(F)(F)F)c2)C1 [Compound 536, N-[4-(3,3-dimethylpyrrolidin-1-yl)-2-(trifluoromethyl)phenyl]-4-oxo-1H-quinoline-3-carboxamide]
16 | 25 to 100 | O=C(Nc1ccccc1Cc1ccccc1)c1c[nH]c2ccccc2c1=O [Compound 265, N-(2-benzylphenyl)-4-oxo-1H-quinoline-3-carboxamide]
17 | 25 to 100 | Cc1cc(C(C)(C)C)c(O)cc1NC(=O)c1c[nH]c2ccc(F)cc2c1=O [Compound 683, 6-fluoro-N-(5-hydroxy-2-methyl-4-tert-butyl-phenyl)-4-oxo-1H-quinoline-3-carboxamide]
18 | 25 to 100 | CC(C)(C)c1cc(F)c(NC(=O)c2c[nH]c3c(C#N)cccc3c2=O)cc1O [Compound 519, 8-cyano-N-(2-fluoro-5-hydroxy-4-tert-butyl-phenyl)-4-oxo-1H-quinoline-3-carboxamide]
19 | < 25 | Cc1ccc(-c2ccccc2)cc1NC(=O)c1c[nH]c2ccccc2c1=O [Compound 454, N-(2-methyl-5-phenyl-phenyl)-4-oxo-1H-quinoline-3-carboxamide]
20 | 25 to 100 | CC(C)(C)c1cc(F)c(NC(=O)c2c[nH]c3ccc(Cl)cc3c2=O)cc1O [Compound 561, 6-chloro-N-(2-fluoro-5-hydroxy-4-tert-butyl-phenyl)-4-oxo-1H-quinoline-3-carboxamide]
21 | 25 to 100 | CC(C)(C)c1ccc(NC(=O)c2c[nH]c3ccccc3c2=O)cc1OCCO [Compound 458, N-[3-(2-hydroxyethoxy)-4-tert-butyl-phenyl]-4-oxo-1H-quinoline-3-carboxamide]
22 | 25 to 100 | CC(C)c1ccc(NC(=O)c2c[nH]c3ccccc3c2=O)cc1O [Compound 575, N-(3-hydroxy-4-isopropyl-phenyl)-4-oxo-1H-quinoline-3-carboxamide]

Row | Emax [%] | SMILES
23 | 25 to 100 | Cc1cccc2[nH]cc(C(=O)Nc3ccc(N4C[C@@H]5CC[C@H]4C5)cc3C(F)(F)F)c(=O)c12 [Compound 582, N-(4-((1S,4R)-2-azabicyclo[2.2.1]heptan-2-yl)-2-(trifluoromethyl)phenyl)-5-methyl-4-oxo-1,4-dihydroquinoline-3-carboxamide]
24 | 25 to 100 | O=C(Nc1ccc(N2CCCC2)cc1)c1c[nH]c2ccccc2c1=O [Compound 674, 4-oxo-N-(4-pyrrolidin-1-ylphenyl)-1H-quinoline-3-carboxamide]
25 | 25 to 100 | O=C(Nc1cc(O)c2ccccc2c1)c1c[nH]c2ccccc2c1=O [Compound 551, N-(4-hydroxy-2-naphthyl)-4-oxo-1H-quinoline-3-carboxamide]
26 | 25 to 100 | Cc1ccc(NC(=O)c2c[nH]c3ccccc3c2=O)cc1N [Compound 167, N-(3-amino-4-methyl-phenyl)-4-oxo-1H-quinoline-3-carboxamide]
27 | 25 to 100 | CC(C)(C)c1ccc(NC(=O)c2c[nH]c3ccc(F)cc3c2=O)cc1O [Compound 490, 6-fluoro-N-(3-hydroxy-4-tert-butyl-phenyl)-4-oxo-1H-quinoline-3-carboxamide]
28 | 25 to 100 | O=C(Nc1ccc2c(c1)NCCC2)c1c[nH]c2ccccc2c1=O [Compound 299, 4-Oxo-N-(1,2,3,4-tetrahydroquinolin-7-yl)-1H-quinoline-3-carboxamide]
29 | < 25 | O=C(Nc1nc2ccccc2[nH]1)c1c[nH]c2ccccc2c1=O [Compound 216, N-(3H-benzoimidazol-2-yl)-4-oxo-1H-quinoline-3-carboxamide]
30 | 25 to 100 | O=C(Nc1cccnc1Oc1ccc(F)cc1F)c1c[nH]c2ccccc2c1=O [Compound 385, N-[2-(2,4-difluorophenoxy)-3-pyridyl]-4-oxo-1H-quinoline-3-carboxamide]
31 | 25 to 100 | Cc1ccc(N)cc1NC(=O)c1c[nH]c2ccccc2c1=O [Compound 94, N-(5-Amino-2-methyl-phenyl)-4-oxo-1H-quinoline-3-carboxamide]
32 | 25 to 100 | Cc1cccc2[nH]cc(C(=O)Nc3ccc(N4[C@H](C)CC[C@@H]4C)cc3C(F)(F)F)c(=O)c12 [Compound 592, N-(4-((2R,5S)-2,5-dimethylpyrrolidin-1-yl)-2-(trifluoromethyl)phenyl)-5-methyl-4-oxo-1,4-dihydroquinoline-3-carboxamide]
33 | 25 to 100 | CCc1ccc(NC(=O)c2c[nH]c3ccccc3c2=O)cc1N [Compound 8, N-(3-amino-4-ethyl-phenyl)-4-oxo-1H-quinoline-3-carboxamide]
34 | 25 to 100 | Cc1ccc2cccc(NC(=O)c3c[nH]c4ccccc4c3=O)c2n1 [Compound 364, N-(2-methyl-8-quinolyl)-4-oxo-1H-quinoline-3-carboxamide]
35 | 25 to 100 | CCc1cccc(C(C)C)c1NC(=O)c1c[nH]c2ccccc2c1=O [Compound 314, N-(2-ethyl-6-isopropyl-phenyl)-4-oxo-1H-quinoline-3-carboxamide]
36 | > 100 | COc1ccc(OC)c(-c2ccccc2NC(=O)c2c[nH]c3ccccc3c2=O)c1 [Compound 361, N-[2-(2,5-dimethoxyphenyl)phenyl]-4-oxo-1H-quinoline-3-carboxamide]
37 | 25 to 100 | COc1ccc(Cl)cc1-c1ccccc1NC(=O)c1c[nH]c2ccccc2c1=O [Compound 202, N-[2-(5-chloro-2-methoxy-phenyl)phenyl]-4-oxo-1H-quinoline-3-carboxamide]
